Results: patent publication US20240200074A1, “METHOD AND COMPOSITIONS FOR PREVENTING TUMOR DEVELOPMENT AND METASTASIS” (The Administrators of the Tulane Educational Fund, priority 2021, published 2024)
“Also recorded” adds a separate entry of the source.

Experiments:
TNBC cells = assay: Membrane potential assay (mitochondrial) in TNBC cells; assay type: cell-based, human; settings: in TRAF3IP2 knockdown cells
U87 = assay: MTT assay with IGU, adult GBM cell line; assay type: cell-based, human
Description: (§1) In vitro investigations were carried out using transduced TNBC cell line (MDAMB-231) and patient derived TNBC cells (4IC), pediatric GBM cell line (KNS), and adult GBM cell line (U87) by targeting and suppressing/silencing TRAF3IP2 expression using shRNA Lentiviral vector (TRAF3IP2KD) versus shRNA control (SCR). Using MTT assay, we treated malignant cells with low and high concentrations of IGU to test cell proliferation, viability, and apoptosis compared to vehicle (DMSO) treated cells. It is shown in FIG. 16 that the silencing of TRAF3IP2 enhances the effect of IGU on adult glioblastoma cells (U87), pediatric glioblastoma cells (KNS) and on triple negative cancer cell growth (data not shown).

KNS = assay: MTT assay with IGU, pediatric GBM cell line; assay type: cell-based, human
Description: as §1

4IC = assay: Cell cycle profile of 4IC cells in vitro, Paclitaxel and TRAF3IP2 knockdown; assay type: cell-based, human
Excerpt: One chemotherapy agent being tested is Paclitaxel. […] Paclitaxel has been previously shown to arrest cell cycle progression at the G2/M phase, resulting in apoptosis.

wild type 4IC cells = assay: 4IC tumors in vivo, combination therapy with Paclitaxel and TRAF3IP2-AO; settings: vs SCR-AO group
Description: At first, tumors were induced using wild type 4IC cells using a similar set up described in FIG. 5. After tumor induction, each group was treated with one of the following: SCR-AO (4IC SCR-AO Treated), SCR-AO and Paclitaxel (SCR-AO+Paclitaxel Treated), TRAF3IP2-AO Treated, or TRAF3IP2-AO and Paclitaxel (TRAF3IP2-AO+Paclitaxel Treated).

TNBC [1] = assay: Detection of micrometastasis using PCR in TNBC metastatic niches of AO treated animals; assay type: in vivo, mice; settings: α-satellite DNA of chromosome 17
Description: FIG. 4E. Detection of micrometastasis using PCR. Key TNBC metastatic niches were analyzed for micrometastasis using primers directed towards a human-specific alpha-satellite DNA sequence of the centromere region of human chromosome 17.
Moreover, PCR using primers that specifically detect human-specific a-satellite DNA sequence of the centromere region of human chromosome 17 indicated no micrometastasis in the treated group.

TRAF3IP2 = assay: Post-mortem Western blotting and immunohistochemical analysis of residual TNBC tumor of AO treated animals; assay type: in vivo
Excerpt: Post-mortem analysis of residual tumor confirmed that targeting TRAF3IP2 suppresses inflammation, angiogenesis, cell cycle and apoptosis, and genes involved in exosome release (FIG. 7(A)).

4IC tumors = assay: Treatment of late stage metastatic TNBC, bioluminescence imaging; assay type: in vivo, mice; settings: 100 μg in 50 μl interperitoneally every 48 hours from day 42
Description: To see if targeting and silencing TRAF3IP2 eliminates metastatic tumors in advanced metastatic TNBC, PDX model were used. 4IC tumors were induced intramammary into mice using 4IC cells [carrying a luciferase-expressing gene for ‘bioluminescence imaging’. Treatment was initiated in late stage BC indicated by advanced metastasis detectable by luciferase imaging (day 42). Animals were treated with TRAF3IP2-AO (100 μg in 50 μl) administered interperitoneally every 48 hours. Control group received SCR-AO in the same fashion (Data not shown). Representative images showing the extend of metastasis after treatment 1(T1), T5, T10, and T15. The control animals were treated with SCR-AO only on T1 and were euthanized due to the increasing tumor growth.

TNBC [2] = assay: TNBC treated in vivo with antisense oligonucleotide, immunohistochemical analysis of angiogenesis
Excerpt: Also, it is notable that TRAF3IP2 induces the expression and release of pro-angiogenic mediators into the TME, activating endothelial cells to promote neo-vascularization. TRAF3IP2 silencing.

BN2 glioblastoma [3] = assay: Glioblastoma PDX (BN2) intracranial model, ICV administration of AO, 2PE imaging and histology; assay type: in vivo, NSG mice
Excerpt: For the experiments reported here, the BN2 glioblastoma specimen was used in xenograft studies, and the results are shown in FIG. 14. Glioblastoma was induced by intracranial injection of tumor cells (into the left SSCx of NSG mice; 3×10^5 cells in PBS+Martigel; n=5 mice/group) isolated from primary glioblastoma tissue. At the time of the injection, a chronic cranial window was installed on the left side of the animal's skull that allowed in vivo 2PE imaging of tumor evolution.
For intracerebroventricular (ICV) administration of AO targeting TRAF3IP2 (TRAF3IP2-AO) or control scrambled AO (SCR-AO), a brain cannula was stereotaonctically implanted into the contralateral (right) ventricle (FIG. 14-A). Treatment of mice started on day 10 post-tumor induction with 5 μl every 48 h; 30 nanomolar AO (FIG. 14-B).
Using in vivo 2PE microscopy, angiograms of microvessels in glioblastoma tumors were captured through a cranial window after i.v. injection of fluorescein isothiocyanatedextran for visualization of blood vessels (green signal). Images correspond to day 24 post-tumor induction, after 8 ICV treatments with either SCR-AO (B, I&II; control group), or TRAF3IP2-AO (B IV&V).
Protein expression in residual tumors confirmed that targeting TRAF3IP2 suppresses inflammation, neoangiogenesis, cell cycle and apoptosis (FIG. 14-D).

BN2 glioblastoma [4] = assay: Detection of intracranial dissemination by PCR of human-specific α-satellite DNA in brain biopsies; assay type: in vivo, NSG mice; settings: compared to SCR-AO treated group
Excerpt: To detect intracranial micrometastasis, the animals in experiments detailed in FIG. 14 were biopsied from adjacent sections of brain. The biopsy specimen were subjected to PCR assay using primers that specifically detect human-specific a-satellite DNA sequence of the centromere region of chromosome 17. Areas evaluated include the left parietal lobe, at a distance of 2 mm from the focus of initial tumor inoculation (Area I) and the right SSCx equidistant from the interhemispheric fissure relative to the focus of initial tumor inoculation (Area II) (FIG. 15).

FCCP
mitochondrial membrane potential on addition of FCCP (TNBC cells): does not decrease mitochondrial membrane potential

CS(=O)(=O)Nc1cc2occ(NC=O)c(=O)c2cc1Oc1ccccc1 [IGU, N-[7-(methanesulfonamido)-4-oxo-6-phenoxychromen-3-yl]formamide]
cell viability (U87; 48 hours, C2 (224.823 mM IGU), U87TRAF3IP2KD): about 40%
cell viability (U87; 48 hours, C2 (224.823 mM IGU), control group U87): about 50%
cell viability (U87; 72 hours, C2, U87TRAF3IP2KD): about 20%
cell viability (U87; 72 hours, C2, control group U87): about 40%
cell viability (KNS; 24 hours, C2, KNS control): about 65%
cell viability (KNS; 24 hours, C2, KNSTRAF3IP2KD): about 55%
cell viability (KNS; 48 hours, C1, KNS control): about 55%
cell viability (KNS; 48 hours, C1, KNSTRAF3IP2KD): about 45%
cell viability (KNS; 72 hours, C2, KNS control): about 40%
cell viability (KNS; 72 hours, C2, cells not named (KNSTRAF3IP2KD implied)): about 25%

CC(=O)O[C@H]1C(=O)[C@@]2(C)[C@H]([C@H](OC(=O)c3ccccc3)[C@]3(O)C[C@H](OC(=O)[C@H](O)[C@@H](NC(=O)c4ccccc4)c4ccccc4)C(C)=C1C3(C)C)[C@]1(OC(C)=O)CO[C@@H]1C[C@@H]2O [Paclitaxel, reference compound]
increase of proportion of cells in G2 (4IC): 23%
reduction of tumor volume / tumor size (wild type 4IC cells): 42%

TRAF3IP2-AO: anti-sense oligonucleotide targeting TRAF3IP2, SEQ ID NO: 2 mG*mG*mU*mG*mG*G*C*A*C*A*T*G*C*T*C*mC*mU*mU*mC*mU
micrometastasis: human-specific DNA sequence in most common metastatic sites (TNBC [1]): No human specific DNA sequence was detected
immunohistochemical levels of TRAF3IP2, IL8 and Caspase 3 in tumor (TRAF3IP2; treated group vs. SCR-AO): decreased levels of TRAF3IP2 and IL8 and increased Caspase 3
levels of TRAF3IP2, IL8, IL1b, and VEGF in tumors (protein expression analysis) (TRAF3IP2; vs. SCR-AO): significantly lower levels
reduction of tumor volume / tumor size (wild type 4IC cells): 78%
luciferase signal (metastasis) (4IC tumors): marked reduction of luciferase signal, reaching undetectable levels after 15 treatments
tumor growth (TNBC [2]; TNBC in vivo): reduced tumor growth
blood vessel density/angiogenesis (CD31 staining) (TNBC [2]; compared to SCR-AO treated tumors): lower blood vessel density/angiogenesis
TNBC cells (human cells) in residual tumor tissue, staining for human-specific mitochondria (TNBC [2]; in vivo): significantly less number
tumor growth / tumor size (BN2 glioblastoma [3]; ICV, 5 μl every 48 h, 30 nanomolar AO from day 10, vs. SCR-AO): reduced tumor growth; also recorded: marked reduction in tumor size; also recorded: significantly less growth and smaller volumes
blood vessel density / vascularization (BN2 glioblastoma [3]; compared to SCR-AO treated): lower blood vessel density/angiogenesis; also recorded: less vascularization
glioblastoma cells (human cells) in residual tumor tissue, staining for human-specific mitochondria (BN2 glioblastoma [3]; mouse, in vivo): significantly less number
infiltrating cells in subcortical areas (histology of brain sections) (BN2 glioblastoma [3]; mouse, in vivo): significantly smaller number of infiltrating cells
intracranial metastasis at Area I (left parietal lobe) and Area II (right SSCx) (BN2 glioblastoma [4]): markedly reduced metastasis at both sites
